Laboratory results from publication PMC8464850, “Sulfonium Ligands of the α7 nAChR” (Molecules, 2021).

Assays:
α4(2)β2(3) = molecular target: T1, α4(2)β2(3) (Homo sapiens, UniProt P17787+P43681); test: Activation of heteromeric nAChR by S1: α4(2)β2(3); assay type: cell-based
T1 construct: expressed in transfected cells; host or cells: Xenopus laevis oocytes (injected RNA)
Excerpt: Concatamers were used in order to obtain heteromeric receptors with known subunit composition. The β2-6-α4 concatamer was co-expressed with monomeric α4, β2, or α5 to obtain receptors with the composition α4(3)β2(2), α4(2)β2(3), or α4(2)β2(2)α5, respectively. A concatamer of five linked subunits was used to obtain the β3α4 β2α6β2 receptors. The α3β4 receptors were formed from the co-expression of α3 and β4 subunit monomers at equal ratios. Note that the data were initially measured relative to internal ACh control responses for each oocyte (Methods). Responses were subsequently adjusted for the relative values of the ACh controls and the ACh maximum responses for each of the various subtypes, determined in previous experiments.
Figure 6 Activation of heteromeric neuronal nAChR by S1. […] Data are the average peak currents (n = 6–8 oocytes ± SEM), measured relative to initial ACh control responses for each oocyte (concentrations listed in Methods). Responses were subsequently adjusted for the relative values of the ACh controls and the ACh maximum responses for each of the various subtypes, determined in previous experiments. […]
Solutions were applied from 96-well plates via disposable tips. […] The responses were calculated as both peak current amplitudes and net charge, as previously described. […] Multi-cell averages were calculated for comparisons of complex responses. […]

human α7 receptors = molecular target: T2, human α7 receptors (Homo sapiens, UniProt P36544); test: Activation of human α7 receptors expressed in Xenopus oocytes, compounds applied alone (two-electrode voltage clamp, net charge); assay type: cell-based; settings: for ability to activate α7 when applied alone: 100 µM
T2 construct: expressed in transfected cells; host or cells: Xenopus laevis oocytes (injected RNA)
T2 sequence (P36544 23-502): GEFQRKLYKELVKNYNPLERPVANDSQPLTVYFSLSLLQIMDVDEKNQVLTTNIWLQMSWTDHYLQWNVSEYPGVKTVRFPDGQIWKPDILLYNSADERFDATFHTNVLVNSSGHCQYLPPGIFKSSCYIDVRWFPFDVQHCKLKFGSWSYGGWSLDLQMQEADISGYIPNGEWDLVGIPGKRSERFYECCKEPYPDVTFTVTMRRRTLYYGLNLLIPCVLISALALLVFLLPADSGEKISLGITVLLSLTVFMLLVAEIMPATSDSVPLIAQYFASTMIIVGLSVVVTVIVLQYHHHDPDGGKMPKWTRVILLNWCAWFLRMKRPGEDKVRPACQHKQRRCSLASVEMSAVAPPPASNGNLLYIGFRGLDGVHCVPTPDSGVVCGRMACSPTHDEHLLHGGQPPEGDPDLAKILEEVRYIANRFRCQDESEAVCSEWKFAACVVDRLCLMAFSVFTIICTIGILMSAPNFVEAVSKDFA
Method: The sulfonium compounds (Figure 1) were evaluated for their ability to activate human α7 receptors expressed in Xenopus oocytes (Figure 2A). Responses were measured as net charge. […] The average net-charge response to 100 µM S1 was 47 ± 6% of the control responses to 60 µM ACh from the same cells.
Figure 2 Responses of α7 nAChR to sulfonium compounds. (A) Net-charge responses to the applications of the test compounds applied at 100 µM. Net charge was calculated as the integrated area of inward current over a 120 s interval following the 30 s-pre-application period used to establish an initial baseline. […] (B) Averaged net-charge responses (±SEM, n = 8) to applications of S1 across a range of concentrations. Responses were measured relative to preceding 60 µM ACh control responses and then adjusted for the difference between ACh controls and ACh maximum responses. See text for curve-fit values.
The human nAChR clones were obtained from Jon Lindstrom (University of Pennsylvania, Philadelphia, PA, USA). Mouse muscle subunit clones were obtained from Jim Boulter (Salk Institute, La Jolla, CA, USA) and Paul Gardner (Dartmouth, Hanover, NH, USA). The human resistance-to-cholinesterase 3 (RIC3) clone was obtained from Millet Treinin (Hebrew University, Jerusalem, Israel) and co-injected with α7 to improve the level and speed of α7 receptor expression without affecting the pharmacological properties of the receptors. Subsequent to linearization and purification of the plasmid DNAs, RNAs were prepared using the mMessage mMachine in vitro RNA transcription kit (Ambion, Austin, TX, USA).
Oocytes were surgically removed from mature female Xenopus laevis frogs (Nasco, Ft. Atkinson, WI, USA) as previously described. Frogs were maintained in the Animal Care Service facility of the University of Florida, and all procedures were approved by the University of Florida Institutional Animal Care and Use Committee (approval number 202002669).
Experiments were conducted using OpusXpress 6000A (Molecular Devices, Union City, CA, USA). Both the voltage and current electrodes were filled with 3 M KCl. Oocytes were voltage-clamped at −60 mV at room temperature (24 °C). The oocytes were bath-perfused with Ringer’s solution (115 mM NaCl, 2.5 mM KCl, 1.8 mM CaCl2, 10 mM HEPES, and 1 μM atropine, pH 7.2) at 2 mL/min for α7 receptors, or 4 mL/min for heteromeric nAChR. To evaluate the effects of experimental compounds, responses were compared to control ACh-evoked responses, defined as the average of two initial applications of ACh made before test applications. ACh control concentrations were 60 µM for α7 receptors; 100 µM for α4(3)β2(2) and α3β4 receptors; 30 µM for α4β2α6β2β3 and muscle-type (αβ1εδ) receptors; and 10 µM for α4(3)β2(2) and α4(2)β2(2)α5 receptors.
Solutions were applied from 96-well plates via disposable tips. Drug applications were 12 s in duration, followed by 181 s washout periods for α7 receptors, or 6 s in duration followed by 301 s washout periods for heteromeric nAChR. The responses were calculated as both peak current amplitudes and net charge, as previously described. Data were collected at 50 Hz, filtered at 20 Hz for α7 receptors or filtered at 5 Hz for heteromeric nAChR, and analyzed by Clampfit (Molecular Devices, San Jose, CA, USA) and Excel (Microsoft, Redmond, WA, USA). Data were expressed as means ± SEM from at least four oocytes for each experiment and plotted with Kaleidagraph 4.5.2 (Abelbeck Software, Reading, PA, USA). Multi-cell averages were calculated for comparisons of complex responses. Averages of the normalized data were calculated for each of the 10,322 points in each of the 206.44 s traces (acquired at 50 Hz), as well as the standard errors for those averages.

T1 sequence (P17787 26-502): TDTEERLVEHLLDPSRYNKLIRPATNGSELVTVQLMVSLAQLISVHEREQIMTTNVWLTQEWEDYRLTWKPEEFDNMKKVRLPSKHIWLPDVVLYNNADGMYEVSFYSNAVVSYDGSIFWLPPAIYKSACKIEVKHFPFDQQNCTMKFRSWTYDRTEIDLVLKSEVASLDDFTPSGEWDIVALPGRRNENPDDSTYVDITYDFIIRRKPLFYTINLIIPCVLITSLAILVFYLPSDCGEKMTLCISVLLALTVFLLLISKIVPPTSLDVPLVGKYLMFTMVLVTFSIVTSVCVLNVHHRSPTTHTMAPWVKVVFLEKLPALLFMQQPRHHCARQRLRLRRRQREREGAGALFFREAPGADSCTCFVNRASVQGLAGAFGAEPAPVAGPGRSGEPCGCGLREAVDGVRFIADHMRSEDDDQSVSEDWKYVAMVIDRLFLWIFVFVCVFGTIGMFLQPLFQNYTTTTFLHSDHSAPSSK
T1 sequence (P43681 29-627 limits assumed): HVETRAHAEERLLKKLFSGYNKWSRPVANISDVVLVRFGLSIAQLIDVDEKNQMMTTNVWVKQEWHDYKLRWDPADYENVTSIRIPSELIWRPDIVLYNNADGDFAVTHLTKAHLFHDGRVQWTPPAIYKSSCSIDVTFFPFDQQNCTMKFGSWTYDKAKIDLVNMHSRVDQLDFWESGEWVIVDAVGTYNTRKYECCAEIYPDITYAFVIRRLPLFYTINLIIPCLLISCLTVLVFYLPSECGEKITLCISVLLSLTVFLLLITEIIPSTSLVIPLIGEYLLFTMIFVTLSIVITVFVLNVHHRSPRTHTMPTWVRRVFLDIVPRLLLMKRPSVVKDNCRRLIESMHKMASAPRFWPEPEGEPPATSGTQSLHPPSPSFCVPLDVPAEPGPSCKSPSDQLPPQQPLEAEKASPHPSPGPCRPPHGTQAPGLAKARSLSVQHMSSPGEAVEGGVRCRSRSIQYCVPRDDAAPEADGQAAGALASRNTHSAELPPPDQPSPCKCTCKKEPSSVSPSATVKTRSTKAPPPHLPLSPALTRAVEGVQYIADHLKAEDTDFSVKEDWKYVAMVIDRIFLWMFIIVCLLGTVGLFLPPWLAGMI
T1 sequence (P17787 26-502): as the sequence (P17787 26-502) above

C[S+](C)C.[I-] [Compound S1, trimethylsulfonium iodide]
IMax (S1 Activation) (α4(2)β2(3); peak currents relative to ACh maximum): 0.89 ± 0.44 | EC50 (α4(2)β2(3); peak currents, unit inferred): 1060 ± 1240 µM | average net-charge response, % of the control responses to 60 µM ACh (human α7 receptors; 100 µM compound applied alone, same cells): 47 ± 6% | ability to activate α7 when applied alone (human α7 receptors; net charge): activated receptors | ability to activate α7 when applied alone (human α7 receptors; net charge, listed as trimethylsulfonium): partial agonist | Imax (human α7 receptors; net charge, n = 8, normalized to ACh maximum, Hill fit): 84 ± 0.3 % ACh Imax | EC50 (human α7 receptors; α7, Hill fit, Table 2, unit printed in text b9 only, read-out: EC50 (S1 Activation)): 98 ± 0.5 µM | IMax (S1 Activation) (human α7 receptors; α7, relative to ACh maximum, Hill fit, Table 2): 0.84 ± 0.01
